Data set [1] deals with streptozotocin-induced diabetic rats. The experiment in a line: Sucrose-challenged streptozotocin-induced diabetic rats (STZ-S), antihyperglycemic activity. The class given is in vivo, rat (Sprague Dawley). Conditions: 100 mg/kg oral, sucrose load 2.5 g/kg, AUC vs control. The procedure: Male albino rats of Sprague Dawley strain of body weight […] were selected for this study. Streptozotocin (Sigma, USA) was dissolved in 100 mM citrate buffer pH 4.5 and calculated amount of the fresh solution was injected to overnight fasted rats (45 mg/kg) intraperitoneally. Blood glucose level was checked 48 h later by glucostrips and animals showing blood glucose values between 144 to 270 mg/dl (8 to 15 mM) were included in the experiment and termed diabetic. The diabetic animals were divided into groups consisting of five to six animals in each group. Animals of experimental groups were administered suspension of the desired test samples orally (made in 1.0% gum acacia) at a dose of 100-mg/kg-body weight. Animals of control group were given an equal amount of 1.0% gum acacia. A sucrose load of 2.5-g/kg body weight was given after 30 minutes of compound administration. After 30 minutes of post sucrose load blood glucose level was again checked by glucostrips at 30, 60, 90, 120, 180, 240, 300 min and at 24 h, respectively. Animals not found diabetic after 24 hours post treatment of the test sample were not considered and omitted from the calculations and termed as non-responders. […] Food but not water was withheld from the cages during the experimentation. Comparing the AUC of experimental and control groups determined the percent antihyperglycemic activity. Statistical comparison between groups was made by Student's ‘t’ test.

The test system of a further data set is sucrose loaded rats. The experiment in a line: Sucrose loaded rat model (SLM), antihyperglycemic activity. The following applies: Rattus norvegicus, 2 h; 100 mg/kg oral; sucrose load 10.0 g/kg; AUC vs control, 30-120 min; read-out: % Fall in blood glucose levels SLM. The class given is in vivo, rat (Charles Foster/Wistar). The protocol:
Male albino rats of Charles Foster/Wistar strain of average body weight 160±20 g were selected for this study. The blood glucose level of each animal was checked by glucometer using glucostrips (Boehringer Mannheim) after 16 h starvation. Animals showing blood glucose levels between 3.33 to 4.44 mM (60 to 80 mg/dl) were divided into groups of five to six animals in each. Animals of experimental group were administered suspension of the desired synthetic compound orally (made in 1.0% gum acacia) at a dose of 100-mg/kg-body weight. Animals of control group were given an equal amount of 1.0% gum acacia. A sucrose load (10.0 g/kg) was given to each animal orally exactly after 30 min post administration of the test sample/vehicle. Blood glucose profile of each rat was again determined at 30, 60, 90 and 120 min post administration of sucrose by glucometer. Food but not water was withheld from the cages during the course of experimentation. Quantitative glucose tolerance of each animal was calculated by Area Under Curve (AUC) method (Prism Software). Comparing the AUC of experimental and control groups determined the percentage antihyperglycemic activity. Statistical comparison was made by Dunnett's test.

For data set [2], the system named is triton WR-1339 induced hyperlipidemic rats. The experiment in a line: Triton model, antidyslipidemic activity. The class given is in vivo, rat (Charles foster). The following applies: Rattus norvegicus, 100 mg/kg oral. The procedure:
Male Charles foster rats weighing 200-225 g were divided into control, hyperlipidemic and hyperlipidemic plus drug treated groups containing six animals in each group. Hyperlipidemia was induced by administration of triton WR-1339 (200 mg/kg i.p.). All animals were maintained on a special pellet diet and water ad libitum. Compounds and standard drug were macerated with 0.2% aqueous gum acacia suspension. The suspension was fed orally at the dose of 100 mg/kg simultaneously with triton in drug treated group. The animals of control group received the same amount of gum acacia by similar route of administration. At the end of the experiment, after 18 h, blood was withdrawn from retro orbital plexus and plasma was used for the assay of total cholesterol, phospholipid and triglycerides.
Cholesterol was estimated using the kit provided by Roche Diagnostics. Cholesterol esters are enzymatically hydrolyzed by cholesterol esterase (CE) to cholesterol and free fatty acids. Free cholesterol, including that originally present, is then oxidized by cholesterol oxidase (CO) to cholest-4-en-3-one and hydrogen peroxide. The hydrogen peroxide combines with hydroxy benzoic acid (HBA) and 4-aminoantipyrine (4AAA) in the presence of peroxidase (POD) to form a chromophore (quinoneimine dye), which may be quantitated at 500-505 nm. The intensity of red colour formed is directly proportional to the concentration of total cholesterol in the specimen and measured spectrophotometrically (Searcy, C. L. Diagnostic Biochemistry, 1969, McGraw Hill, New York; Ellefson, R. D.; Caraway, W. T. Fundamentals of clinical chemistry, 1976, Ed Tietz N W, 506-515.)
Triglycerides were estimated using the kit provided by Roche Diagnostics. Lipoprotein lipase hydrolyses triglycerides to yield glycerol and fatty acids. Glycerol kinase converts glycerol to glycerol-3-phosphate, which is oxidized by glycerol phosphate oxidase to dihydroxy acetone phosphate and hydrogen peroxide. In the presence of peroxidase, hydrogen peroxide oxidatively couples with 4-aminoantipyrine and 4-chloro phenol to produce red quinonimine dye. The intensity of red colour formed is directly proportional to the concentration of triglycerides in the specimen and is measured by photometrically (Wahlefeld, A. W.; Bergmeyer, H. U. Ed. Methods of enzymatic analysis, 2nd English edition, New York, N.Y., Academic press inc, 1831-1840.).
Serum (0.2 mL) and perchloric acid (1.0 mL) was digested at 180° C. for 1-1.5 h till the solution became colorless. The liberated inorganic phosphate (Pi) was measured by the method of Fiske and Subbarow (Fiske, C. H.; Subbarow, V. J. Biol. Chem. 1925, 66, 375.). 1 mL of 2.5% ammonium molybdate (prepared in 5 N sulphuric acid) and 0.5 mL reducing agent (4-amino naphthol sulphonic acid, 0.2%), sodium metabisulphite (2.4% w/v in distilled water) was added to the above tubes and mixed well. The reaction mixture was […] with 2.5 mL of triple distilled water and kept at 60° C. in water bath for 20 min. For standard, an appropriate amount of potassium dihydrogen phosphate dissolved in triple distilled water containing 2-10 μg phosphorus (Pi) was run simultaneously with the experiment tubes. The optical density of the blue colour was recorded at 620 nm against reagent blank. The values of Pi were converted into phospholipid by multiplying with 25 (a constant calibrated from Pi value of lecithin).

The mark [3] stands for this setting: plasma phospholipid after 18 h, read-out: % Fall in lipid levels (Triton model) PL.
The mark [4] stands for this setting: plasma total cholesterol after 18 h, read-out: % Fall in lipid levels (Triton model) TC.
[5] abbreviates: plasma triglycerides after 18 h, read-out: % Fall in lipid levels (Triton model) TG.

The results in this text go back to US7807712B2, “Oxy substituted chalcones as antihyperglycemic and antidyslipidemic agents” (priority 2004, dated 2010).

Like-named read-outs stand apart in the source and are kept apart here.

`COc1ccc(/C=C/C(=O)c2ccc(OCC(O)CN3CCN(c4ccccc4OC)CC3)cc2)cc1` (stereo not shown) [Compound 24, 4′-[2-Hydroxy-3-{4-(2-methoxyphenyl)-piperazin-1-yl}-propoxy]-4-methoxy-chalcone] yielded a melting point of 97 to 98 °C. In data set [1], the “% Fall in blood glucose levels STZ-S 24 h” value is listed as 6.18%. In addition, the inhibition in vivo at 100 mg/kg in the data set on sucrose loaded rats stood at 10.8%. Besides, in data set [2] (setting [3]), the inhibition in vivo at 100 mg/kg worked out at 15%. Further, the inhibition in vivo at 100 mg/kg in data set [2] (setting [4]) came out at 24%. The inhibition in vivo at 100 mg/kg in data set [2] (setting [5]) turned out to be 14%.
In turn, `CCCCNCC(O)COc1ccc(C(=O)/C=C/c2ccc(OC)cc2)cc1` (stereo not shown) [Compound 27, 4′-[3-n-Butylamino-2-hydroxy-propoxy]-4-methoxy-chalcone] registered a melting point of 163 to 164 °C. In data set [1], the “% Fall in blood glucose levels STZ-S 5 h” value is listed as “NIL” and the “% Fall in blood glucose levels STZ-S 24 h” value is given as “NIL”. The inhibition in vivo at 100 mg/kg with sucrose loaded rats is 38%. The inhibition in vivo at 100 mg/kg in data set [2] (setting [3]) turned out to be 22%. In addition, in data set [2] (setting [4]), the inhibition in vivo at 100 mg/kg came to 25%. In data set [2] (setting [5]), the inhibition in vivo at 100 mg/kg was 20%.
Take `COc1ccc(/C=C/C(=O)c2cccc(OCC(O)CNC(C)C)c2)cc1` (stereo not shown) [Compound 29, 3′-[2-Hydroxy-3-iso-propylamino-propoxy]-4-methoxy-chalcone]: the melting point was 102 to 103 °C. Further, in data set [1], the “% Fall in blood glucose levels STZ-S 5 h” value is “NIL” and the “% Fall in blood glucose levels STZ-S 24 h” value was “NIL”. Further, the inhibition in vivo at 100 mg/kg in the data set with sucrose loaded rats is 6.85%. For the same molecule, the inhibition in vivo at 100 mg/kg in data set [2] (setting [3]) worked out at 27%. Further, the inhibition in vivo at 100 mg/kg in data set [2] (setting [4]) amounted to 33%. Moreover, the inhibition in vivo at 100 mg/kg in data set [2] (setting [5]) was 27%.
For `COc1ccc(/C=C/C(=O)c2cccc(OCC(O)CNC(C)(C)C)c2)cc1` (stereo not shown) [Compound 30, 3′-[3-tert-Butylamino-2-hydroxy-propoxy]-4-methoxy-chalcone], the melting point was in the range of 83 to 84 °C. Moreover, the “% Fall in blood glucose levels STZ-S 24 h” value in data set [1] is on record as 11.3%. Besides, the inhibition in vivo at 100 mg/kg in the data set with sucrose loaded rats was 20%. For the same molecule, in data set [2] (setting [3]), the inhibition in vivo at 100 mg/kg stood at 25%. Besides, the inhibition in vivo at 100 mg/kg in data set [2] (setting [4]) was determined as 27%. Besides, in data set [2] (setting [5]), the inhibition in vivo at 100 mg/kg was found to be 30%.
In the case of `CCCCNCC(O)COc1ccccc1C(=O)/C=C/c1ccc(OC)cc1` (stereo not shown) [Compound 31, 2′-[3-n-Butylamino-2-hydroxy-propoxy]-4-methoxy-chalcone], the melting point lay in the range of 106 to 107 °C. Moreover, in data set [1], the “% Fall in blood glucose levels STZ-S 5 h” value is given as “NIL” and the “% Fall in blood glucose levels STZ-S 24 h” value is recorded as “NIL”. For the same molecule, the inhibition in vivo at 100 mg/kg with sucrose loaded rats amounted to 33.1%. In addition, in data set [2] (setting [3]), the inhibition in vivo at 100 mg/kg is 3%.
As for `COc1ccc(/C=C/C(=O)c2ccccc2OCC(O)CNC(C)C)cc1` (stereo not shown) [Compound 32, 2′-[2-Hydroxy-3-iso-propylamino-propoxy]-4-methoxy-chalcone], the melting point was 88 to 89 °C. In addition, the “% Fall in blood glucose levels STZ-S 24 h” value in data set [1] was found to be 2.77%. In addition, the inhibition in vivo at 100 mg/kg in the data set with sucrose loaded rats stood at 47%. Moreover, the inhibition in vivo at 100 mg/kg in data set [2] (setting [3]) amounted to 15%. Besides, in data set [2] (setting [4]), the inhibition in vivo at 100 mg/kg came to 22%. For the same molecule, the inhibition in vivo at 100 mg/kg in data set [2] (setting [5]) was 29%.
As to `CC(C)CNCC(O)COc1ccc(C(=O)/C=C/c2ccc3c(c2)OCO3)cc1` (stereo not shown) [Compound 35, 4′-[3-iso-Butylamino-2-hydroxy-propoxy]-3,4-methylenedioxy-chalcone], the melting point is 122 to 123 °C. Also, the “% Fall in blood glucose levels STZ-S 24 h” value in data set [1] was determined as 11.6%. Besides, the inhibition in vivo at 100 mg/kg with sucrose loaded rats came to 23.8%. In addition, the inhibition in vivo at 100 mg/kg in data set [2] (setting [3]) came to 9%. In data set [2] (setting [4]), the inhibition in vivo at 100 mg/kg is 13%. Further, the inhibition in vivo at 100 mg/kg in data set [2] (setting [5]) amounted to 13%.

The term melting point denotes the temperature, or range, at which the solid turns liquid.
